Where two headings read alike, the source gives them in different places.
Legend:
μ opioidergic receptors = target: T1, μ opioidergic receptors (Mus musculus, UniProt P42866); test: Radioreceptorial binding, μ opioidergic receptors ([3H]-DAMGO, mouse brain membranes); conditions: 1 nM [3H]-DAMGO, CD1 mouse brain membranes, 25° C., 60 minutes
T1 construct: from tissue; host or cells: CD1 mouse brain (excluding cerebellum) membranes

δ opioidergic receptors = target: T2, δ opioidergic receptors (Mus musculus, UniProt P32300); test: Ex-vivo model, isolated organ: electrically induced contractions of mouse vas deferens; conditions: for % contraction inhibition: no antagonist, average of 7 experiments; for activity towards the delta opioid receptors: inhibition of contractions antagonized by ICI 17.4864 or Naltrindol; for inhibition: read-out: % contraction inhibition after addition of ICI 17.4864
T2 construct: from tissue; host or cells: CD1 mouse vas deferens segments (isolated organ)
Procedure: Said effect is antagonized by selective antagonists of the delta opioid receptors, for example the compounds ICI 17.4864 and Naltrindol.
For evaluating the activity of the compounds of the invention on the delta opioid receptors, the compounds respectively obtained in Examples 6.1 and 6.9 were subjected to tests carried out on the basis of the method described by E. J. Bilsky et al. (J.P.E.T., 1995 April; 273 (1):359-366). The experiments were carried out on samples of vas deferent segments taken from CD1 mice (25-30 grams) immediately after sacrifice. After the explant, the vas deferent segments were transferred in a Petri dish containing a Krebs oxygenated solution (118.2 mM NaCl, 4.75 mM KCl, 1.19 mM KH2PO4, 25.0 mM NaHCO3, 11.0 mM glucose, and 2.54 mM CaCl2) in order to proceed to the cleaning of the samples and their subsequent dissection in segments. Segments of vas deferens were so obtained having a length of 1.0-1.2 cm. They were thus immersed in tubs containing 10 ml of an oxygenated Krebs solution (95% O2 and 5% CO2) and kept at a temperature of 37° C. One end of the vas deferens segment was attached to a fixed support, at the tub bottom, while the other end was connected to an isometric force transducer (WPI Fort10, Biological Instruments, Besozzo, Italy) for the registration of the contractions induced by electric stimuli. The samples were then allowed to equilibrate for 60 minutes, changing the Krebs solution every 15 minutes. The samples were then subjected to treatment cycles wherein the electrical stimulation lasted 3 minutes, with an interval of 15 minutes before the following stimulation. The isometric contractions were evoked with sequences of 3 pulses (sequence frequency 0.1 Hz; pulse duration 2 ms) by means of platinum electrodes placed at the sides of the samples. The electrical stimuli were generated by a Grass S88K stimulator and amplified (multiplexing pulse booster 316S; Ugo Basile, Comerio, Italy). The musculature contractions of the vas deferens were monitored by a computer, recorded and analyzed by an analysis system (PowerLab 400). The compounds of the invention were added to the vas deferens in cumulative doses, in the absence or in the presence of one of the following antagonists of the delta opioid receptors: ICI 17.4864 and Naltrindol.
The effect of the tested compounds on the contractions of vas deferens musculature was expressed in percent, calculated by referring the amplitude of the contractions induced by the electrical stimulations after each addition of the test compound to the amplitude of the contractions obtained in the absence of the same compound (100%).
The results obtained with the compounds of Examples 6.1 and 6.9 are reported, respectively, in Table 2 and in Table 3. The results are an average of the data obtained in seven different experiments.

[1] = compound 10^−6 moles/litre + NTI 5 × 10^−8 M
[2] = compound 10^−7 moles/litre + NTI 5 × 10^−8 M
[3] = compound 10^−8 moles/litre + NTI 5 × 10^−8 M
[4] = compound 10^−9 moles/litre + NTI 5 × 10^−8 M
[5] = compound 10^−10 moles/litre + NTI 5 × 10^−8 M
[6] = compound 10^−11 moles/litre + NTI 5 × 10^−8 M

T2 sequence (P32300 whole entry): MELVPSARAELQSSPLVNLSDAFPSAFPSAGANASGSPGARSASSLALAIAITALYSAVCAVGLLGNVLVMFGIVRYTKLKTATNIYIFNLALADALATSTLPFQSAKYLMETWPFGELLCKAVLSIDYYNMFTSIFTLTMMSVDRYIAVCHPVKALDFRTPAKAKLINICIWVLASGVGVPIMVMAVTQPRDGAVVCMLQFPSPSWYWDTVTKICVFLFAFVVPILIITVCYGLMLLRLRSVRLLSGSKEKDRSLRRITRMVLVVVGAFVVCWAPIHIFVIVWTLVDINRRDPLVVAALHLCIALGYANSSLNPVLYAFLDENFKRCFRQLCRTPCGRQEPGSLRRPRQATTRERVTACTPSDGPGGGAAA
T1 sequence (P42866 whole entry): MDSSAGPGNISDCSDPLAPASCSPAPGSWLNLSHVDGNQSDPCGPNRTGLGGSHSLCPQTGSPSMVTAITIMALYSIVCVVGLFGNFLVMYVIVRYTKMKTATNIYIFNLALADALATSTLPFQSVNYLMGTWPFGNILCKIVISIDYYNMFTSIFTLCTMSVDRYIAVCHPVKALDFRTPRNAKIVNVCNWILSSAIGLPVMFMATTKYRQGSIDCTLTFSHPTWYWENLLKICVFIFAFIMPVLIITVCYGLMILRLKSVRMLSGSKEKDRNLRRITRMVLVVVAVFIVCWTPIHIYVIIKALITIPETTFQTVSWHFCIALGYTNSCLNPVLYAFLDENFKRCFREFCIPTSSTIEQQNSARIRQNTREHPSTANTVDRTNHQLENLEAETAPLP

| Structure (SMILES) | Ki (μ opioidergic receptors) | % contraction inhibition after addition of Naltrindol NTI (δ opioidergic receptors; [1]) | % contraction inhibition (δ opioidergic receptors; compound 10^−6 moles/litre) | % contraction inhibition after addition of Naltrindol NTI (δ opioidergic receptors; [2]) | % contraction inhibition (δ opioidergic receptors; compound 10^−7 moles/litre) | % contraction inhibition after addition of Naltrindol NTI (δ opioidergic receptors; [3]) | % contraction inhibition (δ opioidergic receptors; compound 10^−8 moles/litre) | % contraction inhibition after addition of Naltrindol NTI (δ opioidergic receptors; [4]) | % contraction inhibition (δ opioidergic receptors; compound 10^−9 moles/litre) | % contraction inhibition after addition of Naltrindol NTI (δ opioidergic receptors; [5]) | % contraction inhibition (δ opioidergic receptors; compound 10^−10 moles/litre) | % contraction inhibition after addition of Naltrindol NTI (δ opioidergic receptors; [6]) | % contraction inhibition (δ opioidergic receptors; compound 10^−11 moles/litre) | activity towards the delta opioid receptors (δ opioidergic receptors) | inhibition (δ opioidergic receptors; compound 10^−6 moles/litre + ICI 17.4864 2 × 10^−6 M) | inhibition (δ opioidergic receptors; compound 10^−7 moles/litre + ICI 17.4864 2 × 10^−6 M) | inhibition (δ opioidergic receptors; compound 10^−8 moles/litre + ICI 17.4864 2 × 10^−6 M) | inhibition (δ opioidergic receptors; compound 10^−9 moles/litre + ICI 17.4864 2 × 10^−6 M) | inhibition (δ opioidergic receptors; compound 10^−10 moles/litre + ICI 17.4864 2 × 10^−6 M) | inhibition (δ opioidergic receptors; compound 10^−11 moles/litre + ICI 17.4864 2 × 10^−6 M) |
| --- | --- | --- | --- | --- | --- | --- | --- | --- | --- | --- | --- | --- | --- | --- | --- | --- | --- | --- | --- | --- |
| C=CCN1C2CCC1C1CCC2N1C(c1ccc(C(=O)N(CC)CC)cc1)c1cccc(OC)c1 (stereo not shown) [Example 6.1, 4-[(10-allyl-9,10-diazatricyclo[4.2.1.1^2,5]dec-9-yl)-(3-methoxyphenyl)methyl]-N,N-diethylbenzamide] | 1630 ± 186 nM | 41.0% | 86.0% | 24.9% | 71.5% | 19.0% | 51.0% | 11.5% | 32.0% | 5.0% | 16.0% | 4.0% | 5.5% | agonist activity | – | – | – | – | – | – |
| C=CCN1C2CCC1C1CCC2N1C(c1ccc(C(=O)N(CC)CC)cc1)c1cccc(O)c1 (stereo not shown) [Example 6.9, 4-[(10-allyl-9,10-diazatricyclo[4.2.1.1^2,5]dec-9-yl)-(3-hydroxyphenyl)methyl]-N,N-diethylbenzamide] | 20 ± 0.5 nM | 67.5% | 85.0% | 29.0% | 83.0% | 8.9% | 70.0% | 5.2% | 40.0% | 4.5% | 17.0% | 3.0% | 7.5% | agonist activity | 52.2% | 28.2% | 9.5% | 4% | 2.5% | 1.8% |

— patent US8609659B2, “Substituted 3,8-diazabicyclo[3.2.1]octane compounds” (Neuroscienze Pharmaness S.C.A.R.L., priority 2009, dated 2013)
